The values below come from patent US20240002391A1, “4-ALKOXYPYRROLO[2,1-F][1,2,4]TRIAZINES AND PREPARATION AND USES THEREOF” (BioSplice Therapeutics, Inc., priority 2022, published 2024).

This assay addresses recombinant DYRK1A kinase (Homo sapiens (Human), UniProt Q13627). The assay can be described thus: DYRK1A kinase assay (Ser/Thr 18 peptide Z-lyte FRET). Type of assay: biochemical. The conditions noted are these: DYRK1A kinase activity, Z-lyte Ser/Thr 18 peptide, 15 μM ATP; method text calls the value IC50; read-out: EC50 (the source's name). In a few lines: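 Recombinant enzyme (0.25 μg/mL final) was incubated with 15 μM ATP, 4 μM Ser/Thr 18 peptide and compound (11-point 1:3 series from 10 μM) for 1 h at room temperature, in duplicate. Development reagent was added for 1 h, and coumarin/fluorescein emission ratio gave % phosphorylation; IC50 by non-linear regression.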
For `CCC(=O)N[C@]1(C)C[C@@H](Nc2nc(OC)c3c(-c4ccc5nnn(C)c5c4)ccn3n2)C1` [Compound 207, N-(trans-3-((4-Methoxy-5-(1-methyl-1H-benzo[d][1,2,3]triazol-6-yl)pyrrolo[2,1-f][1,2,4]triazin-2-yl)amino)-1-methylcyclobutyl)propionamide], the IC50 stood at 1.3 nM.
Consider `COCC(=O)N[C@]1(C)C[C@@H](Nc2nc(OC)c3c(-c4ccc5nnn(C)c5c4)ccn3n2)C1` [Compound 208, 2-Methoxy-N-(trans-3-((4-methoxy-5-(1-methyl-1H-benzo[d][1,2,3]triazol-6-yl)pyrrolo[2,1-f][1,2,4]triazin-2-yl)amino)-1-methylcyclobutyl)acetamide], for which the IC50 came to 0.5 nM.
Regarding `CNC(=O)[C@]1(C)C[C@H](Nc2nc(OC)c3c(-c4ccc5nnn(C)c5c4)ccn3n2)C1` [Compound 209, cis-3-((4-Methoxy-5-(1-methyl-1H-benzo[d][1,2,3]triazol-6-yl)pyrrolo[2,1-f][1,2,4]triazin-2-yl)amino)-N,1-dimethylcyclobutane-1-carboxamide], the IC50 is 8.8 nM.
Consider `COc1nc(N[C@H]2C[C@@](C)(C(=O)N(C)C)C2)nn2ccc(-c3ccc4nnn(C)c4c3)c12` [Compound 211, cis-3-((4-Methoxy-5-(1-methyl-1H-benzo[d][1,2,3]triazol-6-yl)pyrrolo[2,1-f][1,2,4]triazin-2-yl)amino)-N,N,1-trimethylcyclobutane-1-carboxamide], for which the IC50 was found to be 6.6 nM.
Consider `COc1nc(N[C@H]2C[C@](C)(C(=O)N(C)C)C2)nn2ccc(-c3ccc4nnn(C)c4c3)c12` [Compound 212, trans-3-((4-Methoxy-5-(1-methyl-1H-benzo[d][1,2,3]triazol-6-yl)pyrrolo[2,1-f][1,2,4]triazin-2-yl)amino)-N,N,1-trimethylcyclobutane-1-carboxamide], for which the IC50 turned out to be 1.4 nM.
With `COCCNC(=O)[C@]1(C)C[C@@H](Nc2nc(OC)c3c(-c4ccc5nnn(C)c5c4)ccn3n2)C1` [Compound 214, trans-3-((4-Methoxy-5-(1-methyl-1H-benzo[d][1,2,3]triazol-6-yl)pyrrolo[2,1-f][1,2,4]triazin-2-yl)amino)-N-(2-methoxyethyl)-1-methylcyclobutane-1-carboxamide], the IC50 came out at 2.2 nM.
For `COc1nc(N[C@H]2C[C@@](C)(C(=O)NC3CC3)C2)nn2ccc(-c3ccc4nnn(C)c4c3)c12` [Compound 217, cis-N-Cyclopropyl-3-((4-methoxy-5-(1-methyl-1H-benzo[d][1,2,3]triazol-6-yl)pyrrolo[2,1-f][1,2,4]triazin-2-yl)amino)-1-methylcyclobutane-1-carboxamide] the value was 9.3 nM; for `COc1nc(N[C@H]2C[C@](C)(C(=O)NC3CC3)C2)nn2ccc(-c3ccc4nnn(C)c4c3)c12` [Compound 218, trans-N-Cyclopropyl-3-((4-methoxy-5-(1-methyl-1H-benzo[d][1,2,3]triazol-6-yl)pyrrolo[2,1-f][1,2,4]triazin-2-yl)amino)-1-methylcyclobutane-1-carboxamide], 2.9 nM; for `COc1nc(N[C@H]2C[C@](C)(C(=O)N3CCCC3)C2)nn2ccc(-c3ccc4nnn(C)c4c3)c12` [Compound 222, (trans-3-((4-methoxy-5-(1-methyl-1H-benzo[d][1,2,3]triazol-6-yl)pyrrolo[2,1-f][1,2,4]triazin-2-yl)amino)-1-methylcyclobutyl)(pyrrolidin-1-yl)methanone], 3.5 nM.
Regarding `COc1nc(N[C@H]2C[C@](C)(N3CCCC3=O)C2)nn2ccc(-c3ccc4nnn(C)c4c3)c12` [Compound 223, 1-(trans-3-((4-methoxy-5-(1-methyl-1H-benzo[d][1,2,3]triazol-6-yl)pyrrolo[2,1-f][1,2,4]triazin-2-yl)amino)-1-methylcyclobutyl)pyrrolidin-2-one], the IC50 turned out to be 1.6 nM.
On to `COc1nc(N[C@H]2CC[C@@](C)(O)CC2)nn2ccc(-c3ccc4nnn(C)c4c3)c12` [Compound 224, cis-4-((4-Methoxy-5-(1-methyl-1H-benzo[d][1,2,3]triazol-6-yl)pyrrolo[2,1-f][1,2,4]triazin-2-yl)amino)-1-methylcyclohexan-1-ol], for which the IC50 came to 11.3 nM.
For `CNC(=O)[C@]1(C)CC[C@H](Nc2nc(OC)c3c(-c4ccc5nnn(C)c5c4)ccn3n2)CC1` [Compound 225, cis-4-((4-Methoxy-5-(1-methyl-1H-benzo[d][1,2,3]triazol-6-yl)pyrrolo[2,1-f][1,2,4]triazin-2-yl)amino)-N,1-dimethylcyclohexane-1-carboxamide] the value was 11.7 nM; for `CNC(=O)C12CC(Nc3nc(OC)c4c(-c5ccc6nnn(C)c6c5)ccn4n3)(C1)C2` [Compound 226, 3-((4-Methoxy-5-(1-methyl-1H-benzo[d][1,2,3]triazol-6-yl)pyrrolo[2,1-f][1,2,4]triazin-2-yl)amino)-N-methylbicyclo[1.1.1]pentane-1-carboxamide], 3.2 nM.
Consider `COc1nc(NC2CC3(CCN(C(C)=O)CC3)C2)nn2ccc(-c3ccc4nnn(C)c4c3)c12` [Compound 227, 1-(2-((4-Methoxy-5-(1-methyl-1H-benzo[d][1,2,3]triazol-6-yl)pyrrolo[2,1-f][1,2,4]triazin-2-yl)amino)-7-azaspiro[3.5]nonan-7-yl)ethan-1-one], for which the IC50 worked out at 3.6 nM.
As for `COc1nc(N[C@@H]2C[C@@H]3CN(C(C)=O)C[C@@H]3C2)nn2ccc(-c3ccc4nnn(C)c4c3)c12` [Compound 228, 1-((3aR,5r,6aS)-5-((4-Methoxy-5-(1-methyl-1H-benzo[d][1,2,3]triazol-6-yl)pyrrolo[2,1-f][1,2,4]triazin-2-yl)amino)hexahydrocyclopenta[c]pyrrol-2(1H)-yl)ethan-1-one], the IC50 came out at 3.4 nM.
Then `COc1nc(NC2CCC3(CC2)CN(C(C)=O)C3)nn2ccc(-c3ccc4nnn(C)c4c3)c12` [Compound 229, 1-(7-((4-Methoxy-5-(1-methyl-1H-benzo[d][1,2,3]triazol-6-yl)pyrrolo[2,1-f][1,2,4]triazin-2-yl)amino)-2-azaspiro[3.5]nonan-2-yl)ethan-1-one], with 1.9 nM.
Take `COc1nc(NC2CCC3(CC2)COC3)nn2ccc(-c3ccc4nnn(C)c4c3)c12` [Compound 230, 4-Methoxy-5-(1-methyl-1H-benzo[d][1,2,3]triazol-6-yl)-N-(2-oxaspiro[3.5]nonan-7-yl)pyrrolo[2,1-f][1,2,4]triazin-2-amine]: the IC50 was found to be 4.2 nM.
On to `COc1nc(N[C@H](C)C2CC2)nn2ccc(-c3cnc4nccn4c3)c12` [Compound 231, (R)—N-(1-Cyclopropylethyl)-5-(imidazo[1,2-a]pyrimidin-6-yl)-4-methoxypyrrolo[2,1-f][1,2,4]triazin-2-amine], for which the IC50 is 7.2 nM.
For the compound `COc1nc(N[C@H](C)c2ccccc2)nn2ccc(-c3cnc4nccn4c3)c12` [Compound 233, (R)-5-(Imidazo[1,2-a]pyrimidin-6-yl)-4-methoxy-N-(1-phenylethyl)pyrrolo[2,1-f][1,2,4]triazin-2-amine], the IC50 is 6.8 nM.
Take `COc1nc(N[C@H]2C[C@@H](OC)C2)nn2ccc(-c3cnc4nccn4c3)c12` [Compound 236, 5-(Imidazo[1,2-a]pyrimidin-6-yl)-4-methoxy-N-(cis-3-methoxycyclobutyl)pyrrolo[2,1-f][1,2,4]triazin-2-amine]: the IC50 turned out to be 0.5 nM.
With `COc1nc(N[C@H]2CC[C@@H](C(F)(F)F)CC2)nn2ccc(-c3cnc4nccn4c3)c12` [Compound 239, 5-(Imidazo[1,2-a]pyrimidin-6-yl)-4-methoxy-N-(cis-4-(trifluoromethyl)cyclohexyl)pyrrolo[2,1-f][1,2,4]triazin-2-amine], the IC50 came to 2.9 nM.
Consider `COc1nc(N[C@H]2CC[C@H](C(C)(C)O)CC2)nn2ccc(-c3cnc4nccn4c3)c12` [Compound 242, 2-(trans-4-((5-(Imidazo[1,2-a]pyrimidin-6-yl)-4-methoxypyrrolo[2,1-f][1,2,4]triazin-2-yl)amino)cyclohexyl)propan-2-ol], for which the IC50 was determined as 4.4 nM.
`COc1nc(N[C@H]2CC[C@@H](OC)CC2)nn2ccc(-c3cnc4nccn4c3)c12` [Compound 243, 5-(imidazo[1,2-a]pyrimidin-6-yl)-4-methoxy-N-(cis-4-methoxycyclohexyl)pyrrolo[2,1-f][1,2,4]triazin-2-amine]: the IC50 amounted to 1.2 nM.
With `[2H]C([2H])([2H])O[C@H]1CC[C@@H](Nc2nc(OC)c3c(-c4cnc5nccn5c4)ccn3n2)CC1` [Compound 245, 5-(Imidazo[1,2-a]pyrimidin-6-yl)-4-methoxy-N-(cis-4-(methoxy-d3)cyclohexyl)pyrrolo[2,1-f][1,2,4]triazin-2-amine], the IC50 was 0.7 nM.
Take `COc1nc(N[C@H]2CC[C@@H](OC(F)F)CC2)nn2ccc(-c3cnc4nccn4c3)c12` [Compound 250, N-(cis-4-(Difluoromethoxy)cyclohexyl)-5-(imidazo[1,2-a]pyrimidin-6-yl)-4-methoxypyrrolo[2,1-f][1,2,4]triazin-2-amine]: the IC50 came to 0.6 nM.
Regarding `COc1nc(N[C@H]2CC[C@@H](OC(F)(F)F)CC2)nn2ccc(-c3cnc4nccn4c3)c12` [Compound 252, 5-(Imidazo[1,2-a]pyrimidin-6-yl)-4-methoxy-N-(cis-4-(trifluoromethoxy)cyclohexyl)pyrrolo[2,1-f][1,2,4]triazin-2-amine], the IC50 came to 2.5 nM.
For `COc1nc(NC2CCC(F)(F)CC2)nn2ccc(-c3cnc4nccn4c3)c12` [Compound 254, N-(4,4-Difluorocyclohexyl)-5-(imidazo[1,2-a]pyrimidin-6-yl)-4-methoxypyrrolo[2,1-f][1,2,4]triazin-2-amine], the IC50 is 1.8 nM.
Consider `CN1C[C@H](F)[C@H](Nc2nc(O)c3c(-c4cnc5nccn5c4)ccn3n2)C1` [Compound 261, 2-(((3R,4S)-4-Fluoro-1-methylpyrrolidin-3-yl)amino)-5-(imidazo[1,2-a]pyrimidin-6-yl)pyrrolo[2,1-f][1,2,4]triazin-4-ol], for which the IC50 turned out to be 153 nM.
